Like-named read-outs stand apart in the source and are kept apart here.
Target: T1, CCR1 (Homo sapiens, UniProt P32246)
T1 sequence (P32246 1-355): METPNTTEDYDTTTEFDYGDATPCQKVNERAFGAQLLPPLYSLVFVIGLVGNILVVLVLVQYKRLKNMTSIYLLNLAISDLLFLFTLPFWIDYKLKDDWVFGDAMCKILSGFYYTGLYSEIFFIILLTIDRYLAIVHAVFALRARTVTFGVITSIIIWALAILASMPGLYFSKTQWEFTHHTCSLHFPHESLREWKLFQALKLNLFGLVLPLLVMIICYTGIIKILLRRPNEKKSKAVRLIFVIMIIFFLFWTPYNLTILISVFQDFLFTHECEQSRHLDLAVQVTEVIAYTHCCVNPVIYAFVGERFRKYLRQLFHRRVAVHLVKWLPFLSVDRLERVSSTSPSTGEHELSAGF
Assay: Membrane-based NanoBRET association and dissociation kinetic assays with 12
Assay type: binding
Design: Promega pNLF1-C (Nluc) #CCR010TN00; host or cells: HEK293T, transient (PEI)
Method: Membrane-based NanoBRET association kinetic assay: 5 µL of a solution of the fluorescent ligand (12) diluted to varying concentrations (final assay concentrations: 1–3 µM) in assay buffer and 5 µL of assay buffer were transferred to a 384-well plate. For the determination of non-specific binding, we added a solution of a non-labeled competitor dissolved in assay buffer (5, final assay concentration: 10 µM) instead. After the addition of 5 µL of a furimazine solution (final assay dilution:
1:630 in assay buffer), plates were incubated for 3 minutes in the dark at ambient temperature. Subsequently, 20 µL of the membrane preparation (3 µg total protein/well) were added (final assay volume: 35 µL). BRET ratios were measured with a CLARIOstar microplate reader using 620/10 nm and 475/30 nm emission filters over time at ambient temperature.
The obtained data were analyzed using the association kinetics (one ligand concentration) algorithm in PRISM10.2.1 (GraphPad, USA) to determine association kinetics using a pre-determined koff as a constraint.
Membrane-based NanoBRET dissociation kinetic assay: 5 µL of a solution of the fluorescent ligand (12) diluted to varying concentrations (final assay concentrations: 0.25–3 µM) in assay buffer and 5 µL of assay buffer were transferred to a 384-well plate. In order to determine non-specific binding, we added a solution of a non-labeled competitor dissolved in assay buffer (5, final assay concentration: 10 µM) instead of the 5 µL of assay buffer. Then, 20 µL of the membrane preparation (3 µg total protein/well) were added, and plates were incubated for 1 h at ambient temperature in the dark.
Subsequently, 5 µL of a furimazine solution (final assay dilution: 1:630 in assay buffer) were added. Plates were incubated for further 5 minutes in the dark at ambient temperature. Thereafter, 1 µL of a solution of a […] competitor dissolved in assay buffer (5, final assay concentration: 10 µM) was added. For control experiments, we added 1 µL of assay buffer instead of the competitor solution. BRET ratios were measured with a CLARIOstar microplate reader using 620/10 nm and 475/30 nm emission filters over time at ambient temperature. Specific BRET ratios were calculated as a difference of total and non -specific binding. […]
mM HEPES, no phenol red supplemented with 5% FBS) was added and cells were incubated at 37 °C for 30 minutes.
Then, 5 µL of a solution containing the fluorescent ligand ( 12), diluted in assay medium at varying concentrations, were added in case of saturation binding experiments. To determine non-specific binding, 5 µL of a solution of 5 dissolved in assay medium (final assay concentration: 10 µM) were added. For competition binding experiments, 5 µL of a solution of the fluorescent ligand (12) diluted in assay medium (final assay concentration: 1 µM) and 5 µL of a solution of the potential competitor (diluted from 10 mM DMSO-stock solutions with assay medium) at varying concentrations were added to the corresponding wells. After 90 min of incubation at 37 °C, 5 µL of a furimazine solution (final assay dilution: 1:2500, diluted with assay medium) were added. After a further incubation of 5 min in the dark at 37 °C, BRET ratios were measured with a CLARIOstar microplate reader using 620/10 nm and 475/30 nm emission filters. Total, non-specific and specific binding, which was calculated as a difference of total and non-specific binding, were analyzed using the algorithms for one-site saturation binding in PRISM10.2.1 (GraphPad, USA). To determine the inhibition constants (Ki) of the potential competitors, data were normalized to total and non-specific binding and analyzed using the one site-fit Ki equation in PRISM10.2.1 (GraphPad, USA).
Kinetic solubility assay: Kinetic solubility was assessed in saline phosphate buffer pH 7.25 (1.19 g Na2HPO4·12 H2O, 0.095 g KH2PO4 and 4.0 g NaCl in 0.5 L double distilled water). The pH was adjusted to 7.25 with concentrated […]
hydrochloric acid. […]

Kd (CCR1_Nluc membranes, from kon and koff, read-out: kinetic KD value KD(kin.)): 317 ± 32 nM
koff (CCR1_Nluc membranes, read-out: koff (converted)): 0.00233 s⁻¹
kon (CCR1_Nluc membranes, read-out: kon (converted)): 7350 M⁻¹ s⁻¹
residence time (CCR1_Nluc membranes, read-out: residence time tr): 7.31 ± 0.22 min
kon (association at room temperature (membranes), read-out: kon, mean (Table S1) (converted)): 7360 M⁻¹ s⁻¹
tR, mean (Table S1) (dissociation at room temperature (membranes)): 7.31 min
koff, single experiments (Table S1) (dissociation at room temperature (membranes), 12 at 250-3000 nM): 0.001978 s⁻¹
koff (dissociation at room temperature (membranes), 12 at 250-3000 nM, read-out: koff, single experiments (Table S1) (converted)): 0.00172 s⁻¹
koff (dissociation at room temperature (membranes), read-out: koff, mean (Table S1) (converted)): 0.00233 s⁻¹
SMILES: CN(C)c1ccc2c(-c3cc(C(=O)NCCOCCOCc4cn(CCCC(=O)C5=C(O)C(=O)N(c6ccc(Br)cc6F)C5C5CCCCC5)nn4)ccc3C(=O)[O-])c3ccc(=[N+](C)C)cc-3oc2c1 (stereo not drawn) [compound 12]

Source: publication PMC11249626, “Fluorophore-Labeled Pyrrolones Targeting the Intracellular Allosteric Binding Site of the Chemokine Receptor CCR1” (ACS Pharmacology & Translational Science, 2024)
